Source: patent publication US11485701B2, “Insect repellent compounds and compositions, and methods thereof” (Iowa State University Research Foundation, Inc., priority 2016, dated 2022)

Assays:
Type in all cases: in vivo
[1] = system: female Aedes aegypti (Orlando strain, 1952); test: Minimum effective dosage testing, human skin (treated cloth patch); details: for Proportion to DEET: average MED relative to DEET; for Minimum Effective Dosage, Average: mean across subjects; for Minimum Effective Dosage, Subject 2 / Minimum Effective Dosage, Subject 3 / Minimum Effective Dosage, Subject 1: treated cloth patch, 1 min test, high dose 1.5 mg/cm^2
Experimental: The test mosquitoes were female Aedes aegypti (Orlando strain, 1952) from the colony maintained at United States Department of Agriculture-Agricultural Research Service-Center for Medical, Agricultural and Veterinary Entomology (USDA-ARS-CMAVE) in Gainesville, Fla. Pupae were obtained from the colony and newly emerged mosquitoes were maintained on 10% sugar water and kept in laboratory cages at an ambient temperature of 28±1° C. and RH of 35-60%. Host seeking behavior was pre-selected in nulliparous female mosquitoes aged 6-10 days, indicated by flight upwind towards a potential host, from stock cages using a hand-draw box and trapped in a collection trap.
After 500 (±10%) females were collected in the trap, they were transferred to a test cage (approximately 59,000 cm^3 with dimensions 45×37.5×35 cm) and allowed to acclimatize for 17.5 (±2.5) min before testing was initiated. Just prior to the experiment, the pieces of treated cloth are removed from the vials and stapled onto card stock tabs (5×3 cm). Each piece of the cards and the assembly were hung on a drying rack using masking tape for 3-5 min. Participants in the study used latex gloves to pull a nylon stocking over their arm. A Velcro™-sealed vinyl sleeve was then placed over the forearm. […] The purpose of the nylon stocking was to produce a barrier between the dried cloth and the skin, thereby avoiding direct contact of chemical to skin. The dried cloth assembly was affixed over the opening in the sleeve and held in place with masking tape. Participants then inserted their arm with the sleeve and patch into a screened cage that contained female Ae. Aegypti mosquitoes. Tests were conducted on each control or treated patch for 1 min. A control patch (acetone solvent only, then dried) was tested prior to the start of experiments and evaluation of the same untreated control patch after every 10 tests. If 5 landings were not received on the control patch in 30 s, then tests were discontinued for 60 min. At the conclusion of testing the control patch was tested again. If five landings were not received within 30 s, the data for the replicate was discarded. When testing a patch treated with a candidate repellent, if approximately 1% or 5 mosquito bites were received during this one minute test, this compound was considered to have failed, i.e., was not repellent at that concentration. If a treated cloth patch received 0-4 bites within a minute, then it was considered as passed, i.e., repellent at that concentration of the test compound. The median concentration patch was tested in the first round and treated patches were then tested successively at higher or lower concentrations depending upon whether the previous patch failed or passed, respectively.
The time interval between each tested patch was <90 seconds until 10 successive tests had been conducted. If appreciable, mortality had occurred during testing, the number of knocked down mosquitoes are estimated and additional female mosquitoes are added to the cage to keep the available mosquitoes at approximately 500. The estimate of the MED was the lowest concentration that passed for each candidate. Observed MED values for each candidate compound were averaged across participants and reported as a mean MED±standard error.

[2] = system: Northern house mosquitoes (Culex pipiens); test: Short-term spatial repellency, static air repellency chamber; details: for pest or weed control at 0.5 %: Culex pipiens
Outline: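 Adult females 5-7 days post-emergence, ~20 per chamber, exposed in a 9×60 cm glass tube to filter paper treated with compound in acetone, the other end untreated. Distribution scored at 15-150 min as % spatial repellency; acetone controls, four replicates.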

[3] = system: Northern house mosquitoes (Culex pipiens); test: Long-term spatial repellency, static air repellency chamber, filter papers air-dried 5 hours; details: air-dried 5 hours; for pest or weed control at 0.5 %: Culex pipiens
Experimental: Northern house mosquitoes (Culex pipiens), a primary carrier of West Nile virus in eastern North America, were obtained from an established colony in the Medical Entomology Laboratory in the Department of Entomology at Iowa State University of Science and Technology, Ames Iowa. Mosquito rearing was performed by established protocols that are maintained by the Medical Entomology Laboratory. Repellency bioassays were performed with adult female mosquitoes that were 5-7 days post-emergent. […] Mosquitoes, prior to testing, were held at 27° C., 80% relative humidity, and on a 16:8 hr light:dark photoperiod.
Repellency bioassays were performed using a static air repellency chamber, which has been described in various publications by the Pesticide Toxicology Laboratory at Iowa State University of Science and Technology, Ames, Iowa Briefly, a 9-cm×60-cm glass tube was used to monitor the distribution of mosquitoes at 15 min, 30 min, 60 min, 90 min, 120 min, and 150 min after introducing mosquitoes into the static air repellency chamber. Treated filter papers were treated with 1 mL of 0.5% solution in acetone of the terpenoid analogs created in the lab and were exposed to ambient air for 5 hours before they were introduced into the spatial chamber for testing. This is a slight modification of the method described in Example 2, so as to evaluate the residual repellent character of these compounds on a treated surface after 5 hours. One end of the spatial chamber contained a treated filter paper, whereas the other (untreated) end of the spatial chamber was not treated with compound. Controls contained filter papers treated with acetone, the solvent used to make the 0.5% solutions. Each end of the repellency chamber was secured with a 100-mm Petri dish using celluloid tape. After securing the petri dishes with corresponding treated or untreated filter papers to the spatial chamber, mosquitoes were anesthetized with carbon dioxide, and approximately 20 female mosquitoes were placed into each repellency chamber for one replicate. The opening of the spatial repellency chamber was secured with celluloid tape to prevent their escape. Chambers were oriented in opposite directions from the previous replicate to account for any directional effect. Four replicates were performed for data analysis for both the control and treatment groups.
Data for spatial repellency, the percentage repellency, is reported at each of the respective time points in the figures and tables mentioned below in this disclosure. The percentage spatial repellency is the examination of the distribution of mosquitoes and is calculated using the following equation: […]

[4] = 0.25 h, filter paper, 1 mL of 0.5% solution in acetone, air-dried 15 min, 15 min after introduction, read-out: Short-term Percentage repellency 15 min
[5] = 1.5 h, filter paper, 1 mL of 0.5% solution in acetone, air-dried 15 min, 90 min, read-out: Short-term Percentage repellency 90 min
[6] = 2.5 h, filter paper, 1 mL of 0.5% solution in acetone, air-dried 15 min, 150 min, read-out: Short-term Percentage repellency 150 min
[7] = 0.25 h, 1 mL of 0.5% solution in acetone, 15 min, read-out: Long-term Percentage repellency 15 min
[8] = 1.5 h, 1 mL of 0.5% solution in acetone, 90 min, read-out: Long-term Percentage repellency 90 min
[9] = 2.5 h, 1 mL of 0.5% solution in acetone, 150 min, read-out: Long-term Percentage repellency 150 min

Row | SMILES | Proportion to DEET [1] | Minimum Effective Dosage, Average [1] | Minimum Effective Dosage, Subject 2 [1] | Minimum Effective Dosage, Subject 3 [1] | Minimum Effective Dosage, Subject 1 [1] | pest or weed control at 0.5 % [2, 4] | pest or weed control at 0.5 % [2, 5] | pest or weed control at 0.5 % [2, 6] | pest or weed control at 0.5 % [3, 7] | pest or weed control at 0.5 % [3, 8] | pest or weed control at 0.5 % [3, 9] | further results
1 | CC(O)COC(=O)C=Cc1ccccc1 (stereo not shown) [2-hydroxypropyl cinnamate] | 19.737 | 0.375 mg/cm^2 | 0.375 mg/cm^2 | 0.375 mg/cm^2 |  |  |  |  |  |  |  | 
2 | O=C(C=Cc1ccccc1)OCCO [2-hydroxyethyl cinnamate] |  |  |  | 0.094 mg/cm^2 |  |  |  |  |  |  |  | 
3 | CC(C)=CCCC(C)CC(=O)OCCCO (stereo not shown) [3-hydroxypropyl citronellate] | 3.702 | 0.070 mg/cm^2 | 0.094 mg/cm^2 | 0.023 mg/cm^2 | 0.094 mg/cm^2 |  |  |  |  |  |  | 
4 | CC(C)=CCCC(C)CCOC(=O)C1CCCC1 (stereo not shown) [Compound 2119, citronellyl cyclopentanecarboxylate] |  |  |  |  |  | -1.25% | 33.8% | 52.5% | 20% | 55% | 45% | 
5 | CC(C)=CCCC(C)CCOC(=O)C1CC(=O)C1 (stereo not shown) [Compound 3067, citronellyl 3-oxocyclobutanecarboxylate] |  |  |  |  |  | 47.5% | 60% | 62.5% | 12.5% | 0% | 25% | 
6 | CC(C)=CCCC(C)CCOC(=O)c1ccco1 (stereo not shown) [Compound 2186, citronellyl 2-furoate] |  |  |  |  |  |  |  |  | 25% | 42.5% | 40% | Short-term repellency at low concentration, in words ([2]; filter paper treated with 0.1%, FIG. 6): significant levels of repellency
7 | CC(C)=CCC/C(C)=C\COC(=O)C1CC1 [Compound 2023B, neryl cyclopropanecarboxylate] |  |  |  |  |  | 10% | 52.5% | 60% | 10% | 52.5% | 60% | 
8 | O=C(C=Cc1ccccc1)OCCCO [3-hydroxypropyl cinnamate] | 52.632 | 1.000 mg/cm^2 | 1.500 mg/cm^2 | 0.750 mg/cm^2 | 0.750 mg/cm^2 |  |  |  |  |  |  | 
9 | C=CC(C)(C)OC(=O)CC(C)CCC=C(C)C (stereo not shown) [Compound 2170, tert-prenyl citronellate] |  |  |  |  |  | 80% | 92.5% | 82.5% | 2.5% | 7.5% | -2.5% | 
10 | C#CCOC(=O)CC(C)CCC=C(C)C (stereo not shown) [Compound 1060D, propargyl citronellate] |  |  |  |  |  | 60% | 72.5% | 70% | 15% | 62.5% | 77.5% | 
11 | CC(C)=CCC/C(C)=C/C(=O)OCCO [2-hydroxyethyl geranate] | 13.140 | 0.250 mg/cm^2 | 0.375 mg/cm^2 | 0.187 mg/cm^2 | 0.187 mg/cm^2 |  |  |  |  |  |  | 
12 | CC(C)=CCC/C(C)=C/C(=O)OCC(C)O (stereo not shown) [2-hydroxypropyl geranate] | 2.474 | 0.047 mg/cm^2 | 0.047 mg/cm^2 | 0.047 mg/cm^2 | 0.047 mg/cm^2 |  |  |  |  |  |  | 
13 | CCN(CC)C(=O)c1cccc(C)c1 [DEET, N,N-diethyl-meta-toluaminde, reference compound] | 1.000 | 0.019 mg/cm^2 | 0.023 mg/cm^2 | 0.011 mg/cm^2 | 0.023 mg/cm^2 |  |  |  |  |  |  | Short-term percentage repellency 30 min ([2]; 1 mL of 0.5% solution in acetone, 30 minutes): 53.3%; Short-term Percentage repellency 15 min ([2]; filter paper, 1 mL of 0.5% solution in acetone, air-dried 15 min, 15 min after introduction): 20%±15.3; Long-term percentage repellency 30 min ([3]; 0.5% solution, 30 minutes): 22.5%; Long-term Percentage repellency 15 min ([3]; 1 mL of 0.5% solution in acetone, 15 min): 32.5%±14.4
14 | CC(C)=CCC/C(C)=C/C(=O)OCCCO [3-hydroxypropyl geranate] | 6.579 | 0.125 mg/cm^2 | 0.094 mg/cm^2 | 0.094 mg/cm^2 | 0.187 mg/cm^2 |  |  |  |  |  |  | 
